According to ChEMBL document CHEMBL1201862, “PubChem BioAssay data set” (2004):
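Grown in 96-well plates, cells were treated for 48 hours with each compound at five concentrations. Insufficient inhibition: endpoint recorded as highest concentration tested. Abbreviation: GI50, concentration required for 50% inhibition of growth.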 Calls of active or inactive are those of the source. No stated cut-off is given here; in the data, active = GI50 up to about 1.1 µM and inactive = higher.

Experiments:
Assay in all cases: DTP human tumour cell line panel, 48 h
[1] = test system: ACHN
[2] = test system: DU-145
[3] = test system: HCT-116
[4] = test system: HL-60
[5] = test system: HOP-62
[6] = test system: HT-29
[7] = test system: K562
[8] = test system: MDA-MB-435
[9] = test system: NCI-H23
[10] = test system: NCI-H522
[11] = test system: OVCAR-5
[12] = test system: OVCAR-8
[13] = test system: RXF 393
[14] = test system: SF-295
[15] = test system: SF-539
[16] = test system: SK-OV-3
[17] = test system: U-251
[18] = test system: UACC-257
[19] = test system: HOP-92
[20] = test system: RPMI-8226

Row | Compound | GI50 [1] | GI50 [2] | GI50 [3] | GI50 [4] | GI50 [5] | GI50 [6] | GI50 [7] | GI50 [8] | GI50 [9] | GI50 [10] | GI50 [11] | GI50 [12] | GI50 [13] | GI50 [14] | GI50 [15] | GI50 [16] | GI50 [17] | GI50 [18] | GI50 [19] | GI50 [20]
1 | COc1cc2c(c(OC)c1OC)-c1ccc(SC)c(=O)cc1[C@@H](O)CC2 | 0.0011 µM (active) | 0.000665 µM (active) | 0.000381 µM (active) | 0.000269 µM (active) | 0.000834 µM (active) | 0.000294 µM (active) | 0.00948 µM (active) | 0.000122 µM (active) | 0.000803 µM (active) | 0.00065 µM (active) | 0.0069 µM (active) | 0.00107 µM (active) | 0.000317 µM (active) | 0.000225 µM (active) | 0.000356 µM (active) | 0.000392 µM (active) | 0.000378 µM (active) | 0.0252 µM (active) | – | –
2 | NC(=O)c1cnc2sc3ccccc3n2c1=O | > 100 µM (inactive) | > 100 µM (inactive) | > 100 µM (inactive) | > 100 µM (inactive) | > 100 µM (inactive) | > 100 µM (inactive) | > 100 µM (inactive) | – | – | 74 µM (inactive) | > 100 µM (inactive) | > 100 µM (inactive) | > 100 µM (inactive) | > 100 µM (inactive) | > 100 µM (inactive) | > 100 µM (inactive) | – | > 100 µM (inactive) | 91.4 µM (inactive) | > 100 µM (inactive)
3 | CCc1ccccc1NC(=O)/C=C/c1ccccc1 | > 100 µM (inactive) | > 100 µM (inactive) | > 100 µM (inactive) | – | 49 µM (inactive) | > 100 µM (inactive) | > 100 µM (inactive) | > 100 µM (inactive) | > 100 µM (inactive) | > 100 µM (inactive) | > 100 µM (inactive) | > 100 µM (inactive) | – | > 100 µM (inactive) | > 100 µM (inactive) | > 100 µM (inactive) | 85.9 µM (inactive) | > 100 µM (inactive) | – | > 100 µM (inactive)
4 | CC(C)CCCC(=O)CCCCCCC(=O)CCN(O)C(=O)C(N)CO (stereo unspecified) | 16.1 µM (inactive) | 18.3 µM (inactive) | 17.7 µM (inactive) | 20 µM (inactive) | 21.2 µM (inactive) | 18.7 µM (inactive) | 28.3 µM (inactive) | 25.8 µM (inactive) | 15.1 µM (inactive) | – | 19.8 µM (inactive) | 16.9 µM (inactive) | 11 µM (inactive) | 18.3 µM (inactive) | 16 µM (inactive) | 19.1 µM (inactive) | 21.8 µM (inactive) | 17.3 µM (inactive) | – | 21.7 µM (inactive)
5 | COc1ccc2c(c1)OCC1=C2Oc2ccccc2C1 | 37.4 µM (inactive) | 83.9 µM (inactive) | 36.6 µM (inactive) | 14.8 µM (inactive) | 55.3 µM (inactive) | 26.7 µM (inactive) | 22.1 µM (inactive) | 26.5 µM (inactive) | 53.2 µM (inactive) | 22 µM (inactive) | 30.1 µM (inactive) | 55.6 µM (inactive) | – | 41.5 µM (inactive) | 27.5 µM (inactive) | 85.3 µM (inactive) | 33.5 µM (inactive) | 31.2 µM (inactive) | – | 23.1 µM (inactive)
6 | CCOC(=O)/C(=N\OC)C(O)C(F)(F)F (stereo unspecified) | > 100 µM (inactive) | > 100 µM (inactive) | > 100 µM (inactive) | > 100 µM (inactive) | > 100 µM (inactive) | > 100 µM (inactive) | > 100 µM (inactive) | > 100 µM (inactive) | > 100 µM (inactive) | > 100 µM (inactive) | > 100 µM (inactive) | > 100 µM (inactive) | > 100 µM (inactive) | > 100 µM (inactive) | > 100 µM (inactive) | > 100 µM (inactive) | > 100 µM (inactive) | > 100 µM (inactive) | – | > 100 µM (inactive)
7 | CCOC(=O)c1c(SCc2cc(=O)[nH]c(=O)[nH]2)n(-c2ccccc2)c(=S)n(-c2ccccc2)c1=O | > 100 µM (inactive) | > 100 µM (inactive) | > 100 µM (inactive) | – | > 100 µM (inactive) | > 100 µM (inactive) | > 100 µM (inactive) | > 100 µM (inactive) | – | – | > 100 µM (inactive) | > 100 µM (inactive) | > 100 µM (inactive) | – | > 100 µM (inactive) | > 10 µM (inactive) | > 100 µM (inactive) | > 100 µM (inactive) | – | > 100 µM (inactive)
8 | Cc1ccc(-c2cs/c(=N\c3c(C)n(C)n(-c4ccccc4)c3=O)n2CCO)cc1 | 46.5 µM (inactive) | – | – | > 100 µM (inactive) | > 100 µM (inactive) | – | 97.3 µM (inactive) | > 100 µM (inactive) | 50.8 µM (inactive) | – | > 100 µM (inactive) | > 100 µM (inactive) | > 100 µM (inactive) | > 100 µM (inactive) | > 100 µM (inactive) | > 100 µM (inactive) | > 100 µM (inactive) | 53.8 µM (inactive) | > 100 µM (inactive) | > 100 µM (inactive)
9 | CCOC(=O)CC/C(C)=N\n1c(Cc2ccc(Cl)cc2)n[nH]c1=O | > 100 µM (inactive) | > 100 µM (inactive) | > 100 µM (inactive) | > 100 µM (inactive) | > 100 µM (inactive) | > 100 µM (inactive) | > 100 µM (inactive) | > 100 µM (inactive) | > 100 µM (inactive) | > 100 µM (inactive) | 14.3 µM (inactive) | > 100 µM (inactive) | > 100 µM (inactive) | > 100 µM (inactive) | > 100 µM (inactive) | – | > 100 µM (inactive) | > 100 µM (inactive) | – | > 100 µM (inactive)
10 | CSc1c(C#N)c(O)n(-c2ccc(Cl)cc2)c(=O)c1C(C)=O | – | 70.6 µM (inactive) | 38.1 µM (inactive) | 18.4 µM (inactive) | – | 34.8 µM (inactive) | 25.5 µM (inactive) | 88.3 µM (inactive) | 31.5 µM (inactive) | 0.433 µM (active) | 45.7 µM (inactive) | 42.4 µM (inactive) | 33.6 µM (inactive) | – | 32.9 µM (inactive) | > 100 µM (inactive) | > 100 µM (inactive) | > 100 µM (inactive) | – | 26 µM (inactive)
11 | O=C1N/C(=N\C2CCCCC2)C2(CCN(CCCC3(c4ccc(F)cc4)OCCO3)CC2)N1c1ccccc1 | 14.8 µM (inactive) | 17 µM (inactive) | 12.2 µM (inactive) | 11.7 µM (inactive) | 17.5 µM (inactive) | 16.6 µM (inactive) | – | 19.1 µM (inactive) | 17.9 µM (inactive) | 14.9 µM (inactive) | 16.7 µM (inactive) | 24.8 µM (inactive) | 17.3 µM (inactive) | 19.9 µM (inactive) | 17 µM (inactive) | 21 µM (inactive) | 15.9 µM (inactive) | 15.1 µM (inactive) | – | 23 µM (inactive)
12 | C/C=C/C(O)P1(=O)N(Cc2ccccc2)[C@@H]2CCCC[C@H]2N1Cc1ccccc1 (stereo partly specified) | > 25 µM (inactive) | > 25 µM (inactive) | > 25 µM (inactive) | > 25 µM (inactive) | > 25 µM (inactive) | > 25 µM (inactive) | > 25 µM (inactive) | > 25 µM (inactive) | > 25 µM (inactive) | > 25 µM (inactive) | > 25 µM (inactive) | > 25 µM (inactive) | > 25 µM (inactive) | > 25 µM (inactive) | > 25 µM (inactive) | > 25 µM (inactive) | > 25 µM (inactive) | > 25 µM (inactive) | – | –
13 | COc1cccc(C2C3=C(COC3=O)Oc3cc4c(cc32)OCO4)c1 (stereo unspecified) | 0.0432 µM (active) | 0.0375 µM (active) | 0.0264 µM (active) | < 0.0146 µM (active) | 0.033 µM (active) | 0.0309 µM (active) | < 0.0135 µM (active) | < 0.01 µM (active) | 0.0653 µM (active) | < 0.01 µM (active) | 0.52 µM (active) | 0.0421 µM (active) | 0.0251 µM (active) | < 0.0303 µM (active) | 0.0211 µM (active) | 0.0414 µM (active) | 0.0445 µM (active) | 0.0303 µM (active) | – | 0.0156 µM (active)
14 | CC(=O)O[C@H]1CCn2c3c(c(C)c21)C(=O)C(N1CC1)=C(C)C3=O | > 10 µM (inactive) | 4.21 µM (inactive) | > 10 µM (inactive) | > 10 µM (inactive) | 5.2 µM (inactive) | 2.84 µM (inactive) | > 10 µM (inactive) | > 10 µM (inactive) | 1.68 µM (inactive) | > 10 µM (inactive) | > 10 µM (inactive) | > 10 µM (inactive) | – | 5.11 µM (inactive) | > 10 µM (inactive) | > 10 µM (inactive) | > 10 µM (inactive) | > 10 µM (inactive) | – | > 10 µM (inactive)
15 | Oc1ccc(-c2nc3ccc(Cl)cc3s2)cc1 | 76.7 µM (inactive) | 17.3 µM (inactive) | 16 µM (inactive) | 13.8 µM (inactive) | – | 18.4 µM (inactive) | 28.2 µM (inactive) | 18.5 µM (inactive) | 18.3 µM (inactive) | 16.3 µM (inactive) | 17.9 µM (inactive) | 19.3 µM (inactive) | 19.8 µM (inactive) | 19.3 µM (inactive) | 16.2 µM (inactive) | 20.2 µM (inactive) | 19.7 µM (inactive) | 19.6 µM (inactive) | – | 20.1 µM (inactive)
16 | C/C(=N\N=C(/S)N1CC2CCC(CC2)C1)c1ccncn1 | < 0.01 µM (active) | 0.309 µM (active) | < 0.01 µM (active) | < 0.01 µM (active) | 0.108 µM (active) | < 0.01 µM (active) | < 0.01 µM (active) | 0.0703 µM (active) | < 0.01 µM (active) | – | 0.213 µM (active) | < 0.01 µM (active) | 0.794 µM (active) | < 0.0179 µM (active) | < 0.01 µM (active) | < 0.01 µM (active) | < 0.01 µM (active) | < 0.01 µM (active) | – | < 0.01 µM (active)
